For twelve compounds, Activity results are on record in ChEMBL document CHEMBL1142847, “New orally active spiro 1,2,4-trioxanes with high antimalarial potency” (2005).

Each structure is given as a SMILES string.

What all share (format): functional
A short description of assay [1]: Number of Swiss mice (Mus musculus) alive in a batch of 5 infected with multidrug-resistant Plasmodium yoelii, on day 28 after intramuscular administration of 96 mg/kg/day dose.
Assay [2] concerns Rattus norvegicus. Kind of assay: Number of Swiss mice (Mus musculus) alive in a batch of 5 infected with multidrug-resistant Plasmodium yoelii, on day 28 after peroral administration of 96 mg/kg/day dose. The note with it: route oral.
Assay [3] relates to Rattus norvegicus. Put plainly: Number of Swiss mice (Mus musculus) alive in a batch of 5 infected with multidrug-resistant Plasmodium yoelii, on day 28 after peroral administration of 48 mg/kg/day dose. The settings on record: route oral.
For assay [4], the system named is Rattus norvegicus. Kind of assay: Number of Swiss mice (Mus musculus) alive in a batch of 5 infected with multidrug-resistant Plasmodium yoelii, on day 28 after oral administration of 24 mg/kg/day dose.

On to `C=C(c1ccccc1)C1COC2(CCC(=C(C)C(=O)OCC)CC2)OO1` (stereo not drawn), for which the Activity (in assay [1]; in the assay with Rattus norvegicus [2]) was 0 each time.
Turning to `C=C(c1ccc(-c2ccccc2)cc1)C1COC2(CCC(O)CC2)OO1` (stereo not drawn), the figures for the Activity (in assay [1]; in the assay on Rattus norvegicus [2]) were 2 and 0, respectively.
On to `C=C(c1ccc(-c2ccccc2)cc1)C1COC2(CCC(=CC(=O)OCC)CC2)OO1` (stereo not drawn), for which the Activity in the assay with Rattus norvegicus [3] is reported as 0; in assay [1], 0; with Rattus norvegicus [2] it was 5.
Regarding `C=C(c1ccccc1)C1COC2(CCC(=CC(=O)OCC)CC2)OO1` (stereo not drawn), the Activity in the assay on Rattus norvegicus [3] is on record as 5; in assay [1], 2; with Rattus norvegicus [4], 0; with Rattus norvegicus [2] it was 5.
`C=C(c1ccccc1)C1COC2(CCC(OC(=O)CCC(=O)O)CC2)OO1` (stereo not drawn): the Activity (in assay [1]; with Rattus norvegicus [2]) was 0 in each case.
Take `C=C(c1ccccc1)C1COC2(CCC(O)(CC(=O)OCC)CC2)OO1` (stereo in doubt; form 1): the Activity (in assay [1]; with Rattus norvegicus [2]) was 0 throughout.
As for `C=C(c1ccccc1)C1COC2(CCC(O)CC2)OO1` (stereo not drawn), the Activity (in assay [1]; in the assay on Rattus norvegicus [2]) was 0 each time.
Consider `C=C(c1ccccc1)C1COC2(CCC(O)(c3ccccc3)CC2)OO1` (stereo not drawn), for which the Activity (in assay [1]; in the assay with Rattus norvegicus [2]) was 0 in each case.
Take `C=C(c1ccc(-c2ccccc2)cc1)C1COC2(CCC(=C(C)C(=O)OCC)CC2)OO1` (stereo not drawn): the Activity amounted to 0 in the assay with Rattus norvegicus [3], 0 in assay [1] and 2 in the assay on Rattus norvegicus [2].
Take `C=C(c1ccc(-c2ccccc2)cc1)C1COC2(CCC(OC(=O)CCC(=O)O)CC2)OO1` (stereo not drawn): the Activity (in assay [1]; with Rattus norvegicus [2]) was 0 each time.
Consider `C=C(c1ccccc1)C1COC2(CCC(C)(O)CC2)OO1` (stereo not drawn), for which the values for the Activity (in assay [1]; in the assay on Rattus norvegicus [2]) were 2 and 0, respectively.
Taken in the same sequence, the figures for `C=C(c1ccc(-c2ccccc2)cc1)C1COC2(CCC(O)(CC(=O)OCC)CC2)OO1` (stereo in doubt; form 1) were 0 and 0.
